# Results as given in the PolyMetriX glass transition set.
# ± gives the standard deviation of the reports.
row,glass transition temperature,Structure (SMILES)
1,285.00 °C,*c1ccc2c(c1)C(=O)N(c1ccc(NC(=O)C(F)(F)C(F)(F)C(F)(F)C(F)(F)C(=O)Nc3ccc(N4C(=O)c5ccc(C(*)(C(F)(F)F)C(F)(F)F)cc5C4=O)cc3)cc1)C2=O (repeat unit)
2,242.00 °C,*C1CCC(CC2CCC(N3C(=O)c4ccc(-c5ccc6c(c5)C(=O)N(*)C6=O)cc4C3=O)CC2)CC1 (repeat unit)
3,90.00 °C,*CCCCCCOc1c(OC)cc(/C=C/c2ccc(/C=C/c3cc(OC)c(O*)c(OC)c3)cc2)cc1OC (repeat unit)
4,45.00 °C,*Oc1c(C)cc(C(C)(C)c2cc(C)c(OC(=O)CCCCCCCCC(*)=O)c(C)c2)cc1C (repeat unit)
5,130.00 °C,*Oc1ccc(C(CCC)c2ccc(OC(*)=S)cc2)cc1 (repeat unit)
6,-32.00 °C,*CC(C)(C)COC(=O)Nc1ccc(C)c(NC(=O)O*)c1 (repeat unit)
7,21.00 °C,*CC(*)(C)C(=O)OCCCCCCCCCCOc1ccc(OC(=O)c2ccc(OC)cc2)cc1 (repeat unit)
8,-24.00 °C,*O[Si](C)(CCC(F)(F)F)CCC(F)(F)C(F)(F)C(F)(F)C(F)(F)C(F)(F)C(F)(F)CC[Si](*)(C)CCC(F)(F)F (repeat unit)
9,232.00 °C,*c1ccc2c(c1)C(=O)N(c1cccc(NC(=O)C(F)(F)C(F)(F)C(F)(F)C(F)(F)C(=O)Nc3cccc(N4C(=O)c5ccc(C(*)(C(F)(F)F)C(F)(F)F)cc5C4=O)c3)c1)C2=O (repeat unit)
10,74.60 °C,*O[Si](*)(C)CCCOc1ccc(C(=O)Oc2ccc(-c3ccc(OC(=O)c4ccc(OCC)cc4)cc3)cc2)cc1 (repeat unit)
11,212.00 °C,*c1ccc2c(c1)C(=O)N(c1ccc(Oc3ccc(N4C(=O)c5ccc(C(F)(F)C(F)(F)C(F)(F)C(*)(F)F)cc5C4=O)cc3)cc1)C2=O (repeat unit)
12,112.00 °C,*CCN(*)C(=O)C1(c2ccc(Cl)cc2)CCC1 (repeat unit)
13,167.00 °C,*Oc1ccc(C(=C(Cl)Cl)c2ccc(OC(*)=O)cc2)cc1 (repeat unit)
14,240.00 °C,*c1ccc(Cc2ccc(N3C(=O)c4ccc(Oc5ccc(C6(c7ccc(Oc8ccc9c(c8)C(=O)N(*)C9=O)cc7)CCCCCCCCCCC6)cc5)cc4C3=O)cc2)cc1 (repeat unit)
15,24.00 °C,*CC(*)(C)C(=O)OCCCCCCCCCCOc1ccc2cc(C(=O)Oc3ccccc3)ccc2c1 (repeat unit)
16,12.00 °C,*CCSCc1ccc(Cc2ccc(CSCCOC(=O)CCSCc3ccc(Cc4ccc(CSCCC(=O)O*)cc4)cc3)cc2)cc1 (repeat unit)
17,125.00 °C,*c1cccc(NC(=O)CCCCCCCC(=O)Nc2cccc(S(*)(=O)=O)c2)c1 (repeat unit)
18,305.00 °C,*Nc1cc(NC(=O)c2cccc(C(*)=O)c2)cc(C(=O)Oc2ccc(Oc3ccc(C#N)c(C#N)c3)cc2)c1 (repeat unit)
19,300.00 °C,*C(=O)Nc1ccc(Oc2ccc(Oc3ccc(NC(=O)c4ccc5c(c4)C(=O)N(c4ccc(Oc6ccc(C7(c8ccc(Oc9ccc(N%10C(=O)c%11ccc(*)cc%11C%10=O)cc9)cc8)NC(=O)c8ccccc87)cc6)cc4)C5=O)cc3)cc2)cc1 (repeat unit)
20,99.00 °C,*CC(C)(CC)COC(=O)c1ccc(-c2ccc(C(=O)O*)cc2)cc1 (repeat unit)
21,128.00 °C,*Oc1ccc(C(C)(CC(C)C)c2ccc(OC(*)=S)cc2)cc1 (repeat unit)
22,346.50 °C,*c1ccc2c(c1)C(=O)N(C1CCC(N3C(=O)c4ccc(C(*)(C(F)(F)F)C(F)(F)F)cc4C3=O)CC1)C2=O (repeat unit)
23,-36.00 °C,*CC(*)c1ccc(CCCCCCCCCCCCCC)cc1 (repeat unit)
24,-22.00 °C,*CCCCCCCCCCOC(=O)CCCCCCC(=O)O* (repeat unit)
25,125.00 °C,*CCCCCCCCCCC(=O)Nc1ccc(NC(=O)CCCCCCCCCCN2C(=O)c3ccc(C(=O)c4ccc5c(c4)C(=O)N(*)C5=O)cc3C2=O)cc1 (repeat unit)
26,222.00 °C,*c1ccc(C(c2ccc(C(=O)OC)cc2)c2ccc(N(*)c3ccc(C)cc3)cc2)cc1 (repeat unit)
27,23.50 °C,*CCC1CC2C(CC(*)C2OC(=O)CCCCCCCCCCOc2ccc(-c3ccc(C#N)cc3)cc2)C1OC(=O)CCCCCCCCCCOc1ccc(-c2ccc(C#N)cc2)cc1 (repeat unit)
28,25.00 °C,*CC(F)(F)C(F)(F)C(F)(F)COC(=O)NCC(F)(F)C(F)(F)C(F)(F)C(F)(F)CNC(=O)O* (repeat unit)
29,109.00 °C,*CC(*)(C)C(=O)OCCOc1ccc(/N=N/c2ccc(C#N)cc2)cc1 (repeat unit)
30,43.00 °C,*CC(*)(C)C(=O)OCCCCC1CCCCC1 (repeat unit)

# More lines, now with the values behind:
row,Structure (SMILES),glass transition temperature
1,*CC(CSCC)O* (repeat unit),-57.00 °C
2,*CCC1C(=O)N(CC)C(=O)C1* (repeat unit),109.20 °C
3,*CC(*)CCCCCCCCCI (repeat unit),-6.00 °C
4,*CCCCCCCCO* (repeat unit) [Polyoxyoctamethylene ],-70 ± 34 °C
5,*CCOCC(=O)O* (repeat unit),-12.60 °C
6,*CCCCCNC(=O)Cc1ccc(C(=O)N*)cc1 (repeat unit),103.00 °C
7,*CCOCCOC(=O)O* (repeat unit),-27.00 °C
8,*C(=O)c1ccc(Oc2ccc(N3C(=O)c4ccc(*)cc4C3=O)cc2)cc1 (repeat unit),297.00 °C
9,*Cc1ccccc1CSS* (repeat unit),39.00 °C
10,*CCOCCOCCOC(=O)c1ccc(-c2ccc(-c3ccc(C(=O)O*)cc3)cc2)cc1 (repeat unit),50.00 °C
11,*C(=O)Nc1ccc(Oc2cccc3c(NC(=O)c4ccc5c(c4)C(=O)N(c4ccc(Oc6cccc7c(N8C(=O)c9ccc(*)cc9C8=O)cccc67)cc4)C5=O)cccc23)cc1 (repeat unit),276.00 °C
12,"*Oc1ccc(C(c2ccc(OC(*)=O)cc2)C(C)C)cc1 (repeat unit) [Poly[1,1-(2-methyl propane) bis(4-phenyl)carbonate]]",149 ± 0.6 °C
13,*NC(CCC(=O)OCCCC)C(*)=O (repeat unit),-15.00 °C
14,"*CC(*)c1ccc(C)c(C)c1 (repeat unit) [Poly(3,4-dimethyl styrene) ]",111 ± 2.4 °C
15,*C(=O)Nc1ccc(C2(c3ccc(NC(=O)c4ccc5c(c4)C(=O)N(c4ccc(-c6ccc(N7C(=O)c8ccc(*)cc8C7=O)c(OC)c6)cc4OC)C5=O)cc3)c3ccccc3-c3ccccc32)cc1 (repeat unit),181.00 °C
16,*CC(*)OCCCCCCCCCCCOc1ccc(C(=O)Oc2ccc(OCC)cc2)cc1 (repeat unit),37.00 °C
17,*c1ccc(Oc2ccc(C(=O)c3ccc(-c4ccc(C(=O)c5ccc(Oc6ccc(-c7nc(-c8ccccc8)[nH]c7*)cc6)cc5)cc4)cc3)cc2)cc1 (repeat unit),258.00 °C
18,*C(=O)c1ccc2c(c1)C(=O)N(c1ccc(Oc3ccc(S(=O)(=O)c4ccc(C)cc4)cc3)c(N3C(=O)c4ccc(*)cc4C3=O)c1)C2=O (repeat unit),293.00 °C
19,*CC(*)(C)C(=O)OCCCCCCCCCCOc1ccc(OC(=O)c2ccc(OCCCCCCCC)cc2)cc1 (repeat unit),12.00 °C

row,Structure (SMILES),glass transition temperature
1,*CCN(*)C(=O)c1cccc(F)c1 (repeat unit),97.00 °C
2,*c1ccc2c(c1)C(=O)N(c1cccc3c(N4C(=O)c5ccc(C(*)(C(F)(F)F)C(F)(F)F)cc5C4=O)cccc13)C2=O (repeat unit),390.00 °C
3,*CC(F)(F)C(F)(F)COC(=O)NCCCCCCNC(=O)O* (repeat unit),9.00 °C
4,*CC1CCCC(CN2C(=O)c3ccc(C(c4ccc5c(c4)C(=O)N(*)C5=O)(C(F)(F)F)C(F)(F)F)cc3C2=O)C1 (repeat unit),222.00 °C
5,*c1ccc(Oc2ccc(C(=O)c3ccc(Cc4ccc(C(=O)c5ccc(Oc6ccc(-c7nc(-c8ccccc8)[nH]c7*)cc6)cc5)cc4)cc3)cc2)cc1 (repeat unit),231.00 °C
6,*C(=O)c1ccc2c(c1)C(=O)N(c1ccc(C(=O)c3ccc(N4C(=O)c5ccc(*)cc5C4=O)cc3)cc1)C2=O (repeat unit),293.00 ± 4.9 °C
7,*c1ccc(Oc2ccc(S(=O)(=O)c3ccc(Oc4ccc(-c5nc6ccccc6n5-c5ccc(-n6c(*)nc7ccccc76)cc5)cc4)cc3)cc2)cc1 (repeat unit),270.00 °C
8,*CCC(C)CC(=O)O* (repeat unit),-71.50 °C
9,*CC(=O)O* (repeat unit),45.00 °C
10,*c1ccc(N[Se]Nc2ccc(S(*)(=O)=O)cc2)cc1 (repeat unit),62.00 °C
11,*c1cccc(OCCCCCCOc2cccc(N3C(=O)c4ccc(-c5ccc6c(c5)C(=O)N(*)C6=O)cc4C3=O)c2)c1 (repeat unit),153.00 °C
12,*Oc1ccc(NC(=O)CCCCCCCCCC(=O)Nc2ccc(*)cc2)cc1 (repeat unit),150.00 °C
13,*CCCCCCCNC(=O)CCCCCC(=O)N* (repeat unit),55.00 °C
14,*/C=C/C1CC(*)C2C(=O)N(CCCCCCCCCCCC)C(=O)C12 (repeat unit),50.00 °C
15,*/C=C/c1ccc(/N=N/c2ccc(N(C)CCOC(=O)Nc3ccc(C)c(NC(=O)OCCN(C)c4ccc(/N=N/c5ccc(/C=C/C6=CC(=C(C#N)C#N)C=C(*)O6)cc5)cc4)c3)cc2)cc1 (repeat unit),196.00 °C
16,*c1ccc(Oc2ccc(C(=O)c3ccc(Oc4ccc(-c5nnc(*)c6c(-c7ccc(F)cc7)c(-c7ccc(F)cc7)c(-c7ccc(F)cc7)c(-c7ccc(F)cc7)c56)cc4)cc3)cc2)cc1 (repeat unit),313.00 °C
17,*CC(*)OC(=O)OC([2H])([2H])[2H] (repeat unit),55.00 °C
18,*CC(C)(C)COC(=O)c1ccc(C(=O)O*)cc1 (repeat unit),68.00 °C
